# Where a name gives a salt, the structure may show the parent alone.
# Test system: KRas G12D-mediated phosphorylation of ERK
# Experiment: Inhibition of KRas G12D-mediated phosphorylation of ERK in AGS cells
# Format: cell-based
# Details: Homo sapiens; AGS cells expressing G12D, 3 hours, phospho-ERK normalized to GAPDH
# In short: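 Fixed, methanol-permeabilized; phospho-ERK (Thr202/Tyr204) by in-cell immunofluorescence normalized to GAPDH. Percent of DMSO control, IC50 by 4-parameter fit.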
row,Compound,IC50 [nM]
1,"CCO[C@@H]1C[C@@H](COc2nc(N3C[C@H]4CC[C@@H](C3)N4)c3cnc(-c4cccc5cccc(Cl)c45)c(F)c3n2)N(C)C1 [Example 43, 4-((1R,5S)-3,8-diazabicyclo[3.2.1]octan-3-yl)-7-(8-chloronaphthalen-1-yl)-2-(((2S,4R)-4-ethoxy-1-methylpyrrolidin-2-yl)methoxy)-8-fluoropyrido[4,3-d]pyrimidine]",6200
2,"CSc1cccc2cccc(-c3ncc4c(N5C[C@H]6CC[C@@H](C5)N6)nc(OCC56CCCN5CCC6)nc4c3F)c12 [Example 199, 4-((1R,5S)-3,8-diazabicyclo[3.2.1]octan-3-yl)-8-fluoro-7-(8-(methylthio)naphthalen-1-yl)-2-((tetrahydro-1H-pyrrolizin-7a(5H)-yl)methoxy)pyrido[4,3-d]pyrimidine]",465
3,"CC(C)n1ccnc1CCOc1nc(N2C[C@H]3CC[C@@H](C2)N3)c2cnc(-c3cc(O)cc4ccccc34)c(F)c2n1 [Example 91, 4-(4-((1R,5S)-3,8-diazabicyclo[3.2.1]octan-3-yl)-8-fluoro-2-(2-(1-isopropyl-1H-imidazol-2-yl)ethoxy)pyrido[4,3-d]pyrimidin-7-yl)naphthalen-2-ol]",5510
4,"Fc1cccc(-c2ncc3c(N4C[C@H]5CC[C@@H](C4)N5)nc(OCC45CCCN4CCC5)nc3c2F)c1OC(F)F [Example 302, 4-((1R,5S)-3,8-diazabicyclo[3.2.1]octan-3-yl)-7-(2-(difluoromethoxy)-3-fluorophenyl)-8-fluoro-2-((hexahydro-1H-pyrrolizin-7a-yl)methoxy)pyrido[4,3-d]pyrimidine]",1990
5,"CCN1CCC[C@H]1COc1nc(N2C[C@H]3CC[C@@H](C2)N3)c2cnc(-c3cc(O)cc4ccccc34)c(F)c2n1 [Example 11, 4-(4-((1R,5S)-3,8-diazabicyclo[3.2.1]octan-3-yl)-2-(((S)-1-ethylpyrrolidin-2-yl)methoxy)-8-fluoropyrido[4,3-d]pyrimidin-7-yl)naphthalen-2-ol]",1080
6,"C[C@H]1CN2CCC[C@@]2(COc2nc(N3CC4CCC(C3)N4)c3cnc(-c4cccc5cccc(Cl)c45)c(F)c3n2)C1 (stereo in doubt) [Example 227, 4-((1R,5S)-3,8-diazabicyclo[3.2.1]octan-3-yl)-7-(8-chloronaphthalen-1-yl)-8-fluoro-2-((2-methyltetrahydro-1H-pyrrolizin-7a(5H)-yl)methoxy)pyrido[4,3-d]pyrimidine bis-hydrochloride]",2980
7,"C#Cc1cccc2cc(O)cc(-c3ncc4c(N5C[C@H]6CC[C@@H](C5)N6)nc(OC[C@@]56CCCN5C[C@H](F)C6)nc4c3F)c12 [Example 243, 4-(4-((1R,5S)-3,8-diazabicyclo[3.2.1]octan-3-yl)-8-fluoro-2-(((2R,7aS)-2-fluorohexahydro-1H-pyrrolizin-7a-yl)methoxy)pyrido[4,3-d]pyrimidin-7-yl)-5-ethynylnaphthalen-2-ol]",0.8
8,"O[C@H]1CN2CCC[C@@]2(COc2nc(N3CC4CCC(C3)N4)c3cnc(-c4cccc5cccc(Cl)c45)c(F)c3n2)C1 [Example 223, 7a-(((4-((1R,5S)-3,8-diazabicyclo[3.2.1]octan-3-yl)-7-(8-chloronaphthalen-1-yl)-8-fluoropyrido[4,3-d]pyrimidin-2-yl)oxy)methyl)hexahydro-1H-pyrrolizin-2-ol bis-2,2,2-trifluoroacetate]",4270
9,"CN1C[C@H](F)C[C@H]1COc1nc(N2C[C@H]3CC[C@@H](C2)N3)c2cnc(-c3cccc4cccc(Cl)c34)c(F)c2n1 [Example 115, 4-((1R,5S)-3,8-diazabicyclo[3.2.1]octan-3-yl)-7-(8-chloronaphthalen-1-yl)-8-fluoro-2-(((2S,4R)-4-fluoro-1-methylpyrrolidin-2-yl)methoxy)pyrido[4,3-d]pyrimidine]",9510
10,"CO[C@@H]1CN2CCC[C@]2(COc2nc(N3C[C@H]4CC[C@@H](C3)N4)c3cnc(-c4cccc5cccc(Cl)c45)c(F)c3n2)C1 [Example 219, 4-((1R,5S)-3,8-diazabicyclo[3.2.1]octan-3-yl)-7-(8-chloronaphthalen-1-yl)-8-fluoro-2-((2-methoxytetrahydro-1H-pyrrolizin-7a(5H)-yl)methoxy)pyrido[4,3-d]pyrimidine bis-hydrochloride]",2030
11,"C[C@@H]1C[C@@H]1c1ccccc1-c1ncc2c(N3C[C@H]4CC[C@@H](C3)N4)nc(OCC34CCCN3CCC4)nc2c1F [Example 286, 4-((1R,5S)-3,8-diazabicyclo[3.2.1]octan-3-yl)-8-fluoro-2-((hexahydro-1H-pyrrolizin-7a-yl)methoxy)-7-(2-((1S,2R)-2-methylcyclopropyl)phenyl)pyrido[4,3-d]pyrimidine]",1730
12,"Oc1cc(-c2ncc3c(N4C[C@H]5CC[C@@H](C4)N5)nc(OCC4(C(F)(F)F)CC4)nc3c2F)c2ccccc2c1 [Example 51, 4-(4-((1R,5S)-3,8-diazabicyclo[3.2.1]octan-3-yl)-8-fluoro-2-((1-(trifluoromethyl)cyclopropyl)methoxy)pyrido[4,3-d]pyrimidin-7-yl)naphthalen-2-ol]",12100
13,"C#Cc1c(F)ccc2cccc(-c3ncc4c(N5C[C@H]6CC[C@@H](C5)N6)nc(OC[C@@]56CCCN5C[C@H](F)C6)nc4c3F)c12 [Example 281, 4-((1R,5S)-3,8-diazabicyclo[3.2.1]octan-3-yl)-7-(8-ethynyl-7-fluoronaphthalen-1-yl)-8-fluoro-2-(((2R,7aS)-2-fluorohexahydro-1H-pyrrolizin-7a-yl)methoxy)pyrido[4,3-d]pyrimidine]",97.8
14,"Cn1cc([C@H]2CN3CCC[C@]3(COc3nc(N4CC5CCC(C4)N5)c4cnc(-c5cccc6cccc(Cl)c56)c(F)c4n3)C2)cn1 (stereo in doubt) [Example 220, 4-((1R,5S)-3,8-diazabicyclo[3.2.1]octan-3-yl)-7-(8-chloronaphthalen-1-yl)-8-fluoro-2-((2-(1-methyl-1H-pyrazol-4-yl)tetrahydro-1H-pyrrolizin-7a(5H)-yl)methoxy)pyrido[4,3-d]pyrimidine tris-hydrochloride salt]",1340
15,"CN1CCC[C@H]1CCOc1nc(N2C[C@H]3CC[C@@H](C2)N3)c2cnc(-c3cc(O)cc4ccccc34)c(F)c2n1 [Example 10, 4-(4-((1R,5S)-3,8-diazabicyclo[3.2.1]octan-3-yl)-8-fluoro-2-(2-((S)-1-methylpyrrolidin-2-yl)ethoxy)pyrido[4,3-d]pyrimidin-7-yl)naphthalen-2-ol]",8120
16,"Oc1cc(Cl)c(C(F)(F)F)c(-c2ncc3c(N4C[C@H]5CC[C@@H](C4)N5)nc(OC[C@@]45CCCN4C[C@H](F)C5)nc3c2F)c1 [Example 284, 3-(4-((1R,5S)-3,8-diazabicyclo[3.2.1]octan-3-yl)-8-fluoro-2-(((2R,7aS)-2-fluorohexahydro-1H-pyrrolizin-7a-yl)methoxy)pyrido[4,3-d]pyrimidin-7-yl)-5-chloro-4-(trifluoromethyl)phenol]",17.4
17,"Fc1c(-c2cccc3cccc(Cl)c23)ncc2c(N3C[C@H]4CC[C@@H](C3)N4)nc(OCC34CCCN3CC(F)(F)C4)nc12 (stereo partly drawn) [Example 93, 4-((1R,5S)-3,8-diazabicyclo[3.2.1]octan-3-yl)-7-(8-chloronaphthalen-1-yl)-2-((2,2-difluorotetrahydro-1H-pyrrolizin-7a(5H)-yl)methoxy)-8-fluoropyrido[4,3-d]pyrimidine bis(2,2,2-trifluoroacetate)]",> 16700
18,"CC(C)c1c(F)cccc1-c1ncc2c(N3C[C@H]4CC[C@@H](C3)N4)nc(OCC34CCCN3CCC4)nc2c1F [Example 299, 4-((1R,5S)-3,8-diazabicyclo[3.2.1]octan-3-yl)-8-fluoro-7-(3-fluoro-2-isopropylphenyl)-2-((hexahydro-1H-pyrrolizin-7a-yl)methoxy)pyrido[4,3-d]pyrimidine]",> 5560
19,"COc1nc(N2C[C@H]3CC[C@@H](C2)N3)c2cnc(-c3cc(O)cc4cccc(Cl)c34)c(F)c2n1 [Example 360, 4-(4-((1R,5S)-3,8-diazabicyclo[3.2.1]octan-3-yl)-8-fluoro-2-methoxypyrido[4,3-d]pyrimidin-7-yl)-5-chloronaphthalen-2-ol]",8350
20,"N#CC[C@@H]1C[C@@H]2CN(c3nc(OCC45CCCN4CCC5)nc4c(F)c(-c5cc(O)cc6ccccc56)ncc34)C[C@H]1N2 [Example 338, 2-((1R,5S,6S)-3-(8-fluoro-7-(3-hydroxynaphthalen-1-yl)-2-((tetrahydro-1H-pyrrolizin-7a(5H)-yl)methoxy)pyrido[4,3-d]pyrimidin-4-yl)-3,8-diazabicyclo[3.2.1]octan-6-yl)acetonitrile]",> 16700
21,"C#Cc1cccc2cc(OC)cc(-c3ncc4c(N5C[C@H]6CC[C@@H](C5)N6)nc(OCC56CCCN5CCC6)nc4c3F)c12 [Example 231, 4-((1R,5S)-3,8-diazabicyclo[3.2.1]octan-3-yl)-7-(8-ethynyl-3-methoxynaphthalen-1-yl)-8-fluoro-2-((hexahydro-1H-pyrrolizin-7a-yl)methoxy)pyrido[4,3-d]pyrimidine]",2810
22,"COCCCN1CCC(Oc2nc(N3C[C@H]4CC[C@@H](C3)N4)c3cnc(-c4cc(O)cc5ccccc45)c(F)c3n2)CC1 [Example 41, 4-(4-((1R,5S)-3,8-diazabicyclo[3.2.1]octan-3-yl)-8-fluoro-2-((1-(3-methoxypropyl)piperidin-4-yl)oxy)pyrido[4,3-d]pyrimidin-7-yl)naphthalen-2-ol]",6650
23,"Oc1cc(-c2ncc3c(N4C[C@H]5CC[C@@H](C4)N5)nc(OCC(F)(F)F)nc3c2F)c2ccccc2c1 [Example 48, 4-(4-((1R,5S)-3,8-diazabicyclo[3.2.1]octan-3-yl)-8-fluoro-2-(2,2,2-trifluoroethoxy)pyrido[4,3-d]pyrimidin-7-yl)naphthalen-2-ol]",4880
24,"Cc1cccc2cccc(-c3ncc4c(N5C[C@H]6CC[C@@H](C5)N6)nc(OCC56CCCN5CCC6)nc4c3F)c12 [Example 334, 4-((1R,5S)-3,8-diazabicyclo[3.2.1]octan-3-yl)-8-fluoro-7-(8-methylnaphthalen-1-yl)-2-((tetrahydro-1H-pyrrolizin-7a(5H)-yl)methoxy)pyrido[4,3-d]pyrimidine]",2910
